Publication PMC7175153, “Testing the Pharmacokinetic Interactions of 24 Colonic Flavonoid Metabolites with Human Serum Albumin and Cytochrome P450 Enzymes” (Biomolecules, 2020)
Like-named read-outs stand apart in the source and are kept apart here.

Key:
[1] = target: T1, human serum albumin (HSA) (Homo sapiens, UniProt P02768); assay: HSA-ligand interaction by fluorescence spectroscopy (quenching, Stern-Volmer and Hyperquad fitting); type: binding; conditions: for Kd: decimal log ±SEM of K in L/mol, Hyperquad non-linear fitting, PBS pH 7.4; for Effect on HSA fluorescence signal at 340 nm / LogKSV (Stern-Volmer quenching constant): HSA 2 μM; for Effect on HSA fluorescence signal at 340 nm: metabolite 0-8 μM, λex 295 nm; for LogKSV (Stern-Volmer quenching constant): decimal log ±SEM of KSV in L/mol, PBS pH 7.4, λex 295 nm, λem 340 nm
T1 construct: purchased Sigma-Aldrich
Experimental: Albumin-ligand interactions were investigated employing a Hitachi F-4500 fluorimeter (Tokyo, Japan), measurements were performed in phosphate-buffered saline (PBS, pH 7.4), in the presence of air at room temperature. Absorption spectra of the flavonoid metabolites were also recorded in PBS, applying a HALO DB-20 UV-Vis spectrophotometer (Dynamica, London, UK). Because the inner filter effect can decrease the fluorescence emission signal of albumin, fluorescence spectra were corrected using the following equation [29, 30]:Icor = Iobs × e^(Aex^+ Aem^)/2(1) where Icor means the corrected and Iobs denotes the observed emission intensities at the wavelengths used, while Aex and Aem are the absorbance values of flavonoid metabolites at the excitation and emission wavelengths applied, respectively.
HSA-ligand interactions were evaluated using fluorescence quenching studies or the intrinsic fluoresce of the metabolite (if it strongly interfered with the emission signal of albumin). In quenching studies, the emission spectrum of HSA (2 μM) was recorded in the presence of increasing concentrations of microbial metabolites (0, 2, 3, 4, 5, 6, and 8 μM), using a 295 nm excitation wavelength. Data were evaluated based on linear and non-linear fitting, employing the Stern-Volmer equation (Equation (2)) and the Hyperquad2006 program package (Protonic Software; Leeds, UK), respectively. The Stern-Volmer equation was described as I0/I = 1 + KSV × [Q](2) where I0 and I denote the fluorescence emission intensities (λex = 295 nm, λem = 340 nm) of HSA in the absence and presence of colonic metabolites, respectively. Furthermore, KSV (unit: L/mol) and [Q] (unit: mol/L) are the Stern-Volmer quenching constant and the concentration of the quencher, respectively.
The fluorescence emission spectrum of 2H4MBA (2 μM) was recorded with HSA (0, 0.5, 1, 2, 3, 4 and 5 μM), using 295 nm excitation wavelength (the excitation maximum of 2H4MBA). The binding constants (K; unit: L/mol) of albumin-ligand complexes were determined by non-linear fitting using the Hyperquad2006 program, as has been reported. During this evaluation, absorbance values and fluorescence signals of both HSA and 2H4MBA were taken into account.

HSA Site II (naproxen) = target: T2, HSA Site II (naproxen) (Homo sapiens, UniProt P02768); assay: Displacement of Site II marker naproxen from HSA by ultrafiltration; type: binding; conditions: naproxen 1 μM, HSA 1.5 μM, metabolite 20 μM
T2 construct: purchased Sigma-Aldrich
Description: (§1) Then the concentrations of site markers in the filtrates were quantified by HPLC (see in 2.5).

CYP2C19 [2] = target: T3, CYP2C19 (Homo sapiens, UniProt P33261); assay: CYP2C19-catalyzed S-mephenytoin hydroxylation (CypExpress 2C19 kit); type: in vitro ADME; conditions: CypExpress 2C19 kit (recombinant CYP2C19), probe S-mephenytoin, metabolite 20 μM, S-mephenytoin 5 μM
T3 construct: purchased Sigma-Aldrich
Description: Effects of microbial metabolites on CYP2C19 enzyme were examined based on their impact on CYP2C19-catalyzed 4-hydroxymephenytoin formation, employing the previously reported method without modifications.
(§2) S-mephenytoin and 4-hydroxymephenytoin (CYP2C19 assay) as well as testosterone and 6β-hydroxytestosterone (CYP3A4 assay) were quantified by HPLC-UV employing the previously described methods without modifications.

HSA = conditions: cited from earlier work
[3] = parameters: method as in PMID 25168218; conditions: rat plasma, after Decalepis arayalpathra tuber extract; cited from earlier work
bovine serum albumin = conditions: cited from earlier work
[4] = cited from earlier work
CYP3A4 [5] = conditions: cited from earlier work
CYP2C9 [6] = conditions: cited from earlier work
CYP2C19 [7] = system: CYP2C19; parameters: method as in PMID 24254844; conditions: cited from earlier work
CYP3A4 [8] = target: T4, CYP3A4 (Homo sapiens, UniProt P08684); assay: CYP3A4-catalyzed testosterone hydroxylation (CypExpress 3A4 kit); type: in vitro ADME; conditions: CypExpress 3A4 kit (recombinant CYP3A4), probe testosterone, metabolite 20 μM, testosterone 5 μM, read-out: Inhibition of CYP3A4 (decrease in metabolite formation)
T4 construct: purchased Sigma-Aldrich
Experimental: Inhibitory action of flavonoid metabolites on CYP3A4 enzyme was tested based on their effects on CYP3A4-catalyzed testosterone hydroxylation, using the previously described method without modifications.
as §2

HSA Site I (warfarin) = target: T5, HSA Site I (warfarin) (Homo sapiens, UniProt P02768); assay: Displacement of Site I marker warfarin from HSA by ultrafiltration; type: binding; conditions: warfarin 1 μM, HSA 5 μM, metabolite 20 μM
T5 construct: purchased Sigma-Aldrich
Description: as §1

CYP2C9 [9] = target: CYP2C9 (Homo sapiens, UniProt P11712); assay: CYP2C9-catalyzed diclofenac hydroxylation (CypExpress 2C9 kit)
Experimental: The inhibitory effects of colonic flavonoid metabolites were examined in vitro, applying CypExpress^TM Cytochrome P450 human kits.
Inhibition of CYP2C9 enzyme was examined based on CYP2C9-catalyzed 4′-hydroxydiclofenac formation in the presence of microbial metabolites, using the previously reported method with some modifications. […] The incubations were started with the addition of the enzyme. After 120 min incubation at 700 rpm and 30 °C in a thermomixer (Eppendorf, Hamburg, Germany), the reaction was stopped with the addition of 100 μL of ice-cold methanol. After centrifugation (10 min, 14,000 g, room temperature), the concentrations of diclofenac and 4′-hydroxydiclofenac were quantified with HPLC (see in 2.5).
The metabolite formation (% of control) was depicted vs. the concentrations of inhibitors in a decimal logarithmic scale, then IC50 values were determined employing the GraphPad Prism 8 software (San Diego, CA, USA).
Diclofenac and 4′-hydroxydiclofenac (CYP2C9 assay) were quantified by HPLC-UV as it was reported previously. […] The separation was carried out using a guard column (Phenomenex Security Guard C8, 4.0 × 3.0 mm) linked to an analytical column (Agilent Eclipse C8, 150 × 4.6 mm, 5 μm) at room temperature. […] Diclofenac and 4′-hydroxydiclofenac were detected at 275 nm.

[10] = read-out: LogK (binding constant of albumin-ligand complex) (converted)

T1 sequence (P02768 25-609): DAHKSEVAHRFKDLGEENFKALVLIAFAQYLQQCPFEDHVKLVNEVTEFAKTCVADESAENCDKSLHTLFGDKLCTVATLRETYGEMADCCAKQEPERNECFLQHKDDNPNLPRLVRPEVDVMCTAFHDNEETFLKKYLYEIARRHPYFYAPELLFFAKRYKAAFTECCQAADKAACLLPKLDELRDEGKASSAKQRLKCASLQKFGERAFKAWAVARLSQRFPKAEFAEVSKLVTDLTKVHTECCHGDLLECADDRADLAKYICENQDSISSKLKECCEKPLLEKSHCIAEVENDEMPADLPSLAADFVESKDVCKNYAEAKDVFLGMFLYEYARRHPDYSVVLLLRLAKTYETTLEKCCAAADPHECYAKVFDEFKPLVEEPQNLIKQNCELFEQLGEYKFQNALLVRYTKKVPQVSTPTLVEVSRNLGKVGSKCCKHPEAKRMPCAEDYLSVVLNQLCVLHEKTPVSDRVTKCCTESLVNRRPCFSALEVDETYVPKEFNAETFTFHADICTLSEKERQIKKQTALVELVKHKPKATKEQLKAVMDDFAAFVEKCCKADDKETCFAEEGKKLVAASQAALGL
T3 sequence (P33261 whole entry): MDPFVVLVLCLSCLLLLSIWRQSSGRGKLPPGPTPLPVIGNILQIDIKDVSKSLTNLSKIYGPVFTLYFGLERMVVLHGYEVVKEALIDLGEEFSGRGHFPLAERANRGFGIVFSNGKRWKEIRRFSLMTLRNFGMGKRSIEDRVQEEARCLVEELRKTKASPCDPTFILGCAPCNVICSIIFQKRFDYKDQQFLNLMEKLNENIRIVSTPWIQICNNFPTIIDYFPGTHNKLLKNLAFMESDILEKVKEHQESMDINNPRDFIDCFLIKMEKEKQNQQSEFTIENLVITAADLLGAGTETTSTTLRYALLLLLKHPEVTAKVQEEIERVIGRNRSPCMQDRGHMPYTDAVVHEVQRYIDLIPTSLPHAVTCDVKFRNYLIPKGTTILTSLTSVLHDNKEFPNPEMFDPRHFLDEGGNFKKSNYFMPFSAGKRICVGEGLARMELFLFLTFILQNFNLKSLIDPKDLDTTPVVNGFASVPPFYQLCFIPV
T4 sequence (P08684 whole entry): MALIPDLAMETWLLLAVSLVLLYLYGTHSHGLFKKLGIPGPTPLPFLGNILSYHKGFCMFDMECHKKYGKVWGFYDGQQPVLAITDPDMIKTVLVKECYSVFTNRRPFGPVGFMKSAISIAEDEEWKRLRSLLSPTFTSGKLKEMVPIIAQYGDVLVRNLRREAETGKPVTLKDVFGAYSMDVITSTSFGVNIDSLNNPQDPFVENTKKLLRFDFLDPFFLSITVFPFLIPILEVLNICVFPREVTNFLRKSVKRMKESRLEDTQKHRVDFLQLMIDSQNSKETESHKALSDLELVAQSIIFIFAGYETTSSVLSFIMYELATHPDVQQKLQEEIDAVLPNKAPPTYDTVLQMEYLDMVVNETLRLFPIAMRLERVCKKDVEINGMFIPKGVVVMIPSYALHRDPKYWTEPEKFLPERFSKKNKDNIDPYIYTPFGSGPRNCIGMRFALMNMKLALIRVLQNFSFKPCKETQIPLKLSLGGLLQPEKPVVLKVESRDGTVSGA
CYP2C9 (Homo sapiens, UniProt P11712), sequence (P11712 whole entry): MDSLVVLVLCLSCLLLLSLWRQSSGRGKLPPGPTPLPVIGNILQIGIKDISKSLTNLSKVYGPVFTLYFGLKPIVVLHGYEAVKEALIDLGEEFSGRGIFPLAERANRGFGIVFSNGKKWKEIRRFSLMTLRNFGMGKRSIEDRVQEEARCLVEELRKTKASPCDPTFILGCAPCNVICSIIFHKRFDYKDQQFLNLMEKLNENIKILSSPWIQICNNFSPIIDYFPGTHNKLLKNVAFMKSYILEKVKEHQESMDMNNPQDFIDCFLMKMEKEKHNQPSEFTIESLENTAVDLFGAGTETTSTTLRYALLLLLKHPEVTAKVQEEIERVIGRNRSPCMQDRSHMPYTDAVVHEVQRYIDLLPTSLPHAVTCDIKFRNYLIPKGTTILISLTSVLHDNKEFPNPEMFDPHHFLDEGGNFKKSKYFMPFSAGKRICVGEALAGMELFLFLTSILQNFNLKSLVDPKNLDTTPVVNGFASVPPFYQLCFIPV
T5 sequence (P02768 25-609): as the sequence (P02768 25-609) above
T2 sequence (P02768 25-609): as above

Compound: COc1ccc(C(=O)O)c(O)c1 [2H4MBA, 2-hydroxy-4-methoxybenzoic acid]
- Kd [1, 10]: 7.24 µM
- Concentration of naproxen in the filtrate (HSA Site II (naproxen)): statistically significant (p < 0.05) but weak elevation
- inhibition at 20 μM (CYP2C19 [2]): < 30%
- logK of 2H4MBA-HSA complex (HSA; quenching study): 3.2
- Cmax [3]: 7.7 µM

Compound: O=C(O)/C=C/c1cccc(O)c1 [3CA, 3-coumaric acid]
- Effect on HSA fluorescence signal at 340 nm [1]: significant decrease
- Kd [1, 10]: 72.4 µM
- LogKSV (Stern-Volmer quenching constant) [1]: 4.13 ± 0.02
- logK of 3CA-bovine serum albumin complex (bovine serum albumin): 4.1
- Concentration in the circulation [4]: low nanomolar concentrations

Compound: COc1cc(CC(=O)O)ccc1O [3M4HPAA, 3-methoxy-4-hydroxyphenylacetic acid]
- logK toward bovine serum albumin (bovine serum albumin): 3.8

Compound: O=C(O)/C=C/c1ccc(O)cc1 [4-coumaric acid]
- Effect on CYP3A4 enzyme (CYP3A4 [5]): did not influence

Compound: COc1cc(C(=O)O)ccc1O [4-hydroxy-3-methoxy-benzoic acid]
- Cmax ([4]; healthy human volunteers, orally administered): 5.7 µM

Compound: O=C(O)c1ccc(O)cc1 [4HBA, 4-hydroxybenzoic acid]
- logK of complex with HSA (HSA): no interaction
- Inhibition of CYP2C9 (CYP2C9 [6]): did not inhibit
- Inhibition of CYP2C19 (CYP2C19 [7]): did not inhibit
- Effect on CYP3A4 enzyme (CYP3A4 [5]): did not influence

Compound: CC(=O)c1ccc(O)cc1O [24DHAP, 2,4-dihydroxyacetophenone]
- Effect on HSA fluorescence signal at 340 nm [1]: significant decrease
- Kd [1, 10]: 27.5 µM
- LogKSV (Stern-Volmer quenching constant) [1]: 4.39 ± 0.06
- inhibition at 20 μM (CYP3A4 [8]): < 30%

Compound: O=C(O)c1ccc(O)cc1O [24DHBA, 2,4-dihydroxybenzoic acid]
- logK of complex with HSA (HSA): 3.2

Compound: O=C(O)c1ccc(O)c(O)c1 [34DHBA, 3,4-dihydroxybenzoic acid]
- inhibition at 20 μM (CYP2C19 [2]): < 30%
- logK of complex with HSA (HSA): 3.1

Compound: O=C(O)CCc1ccc(O)cc1 [34HPPA, 3-(4-hydroxyphenyl)propionic acid]
- Inhibition of CYP2C9 (CYP2C9 [6]): did not inhibit
- Inhibition of CYP2C19 (CYP2C19 [7]): did not inhibit
- Effect on CYP3A4 enzyme (CYP3A4 [5]): did not influence

Compound: CC(C(=O)c1ccc(O)cc1O)c1ccc(O)cc1 (stereo not shown) [DESMA, 1-(2,4-dihydroxyphenyl)-2-(4-hydroxyphenyl)-1-propanone]
- Effect on HSA fluorescence signal at 340 nm [1]: significant decrease
- Kd [1, 10]: 8.32 µM
- LogKSV (Stern-Volmer quenching constant) [1]: 4.99 ± 0.01
- Concentration of warfarin in the filtrate (HSA Site I (warfarin)): significantly increased
- IC50 (CYP2C9 [9]): 6.6 µM
- α (IC50 of the inhibitor divided by the IC50 of the positive control) (CYP2C9 [9]; human, 120 min, pH 7.5): 5.00
- inhibition at 20 μM (CYP2C19 [2]): < 30%
- inhibition at 20 μM (CYP3A4 [8]): < 30%
- Plasma concentrations ([4]; after dietary intake or high consumption of soy products, low nanomolar upward): ≤ 0.5 µM
- Peak plasma concentration ([4]; after ingestion of 60 g baked soybean powder): 300−500 nM

Compound: O=C(O)CNC(=O)c1ccccc1 [HIPA, hippuric acid]
- inhibition at 20 μM (CYP2C19 [2]): < 30%
- logK of complex with HSA (HSA): 3.8
- Inhibition of CYP2C9 (CYP2C9 [6]): inhibited only at very high concentrations (e.g., 100 μM)
- Inhibition of CYP3A4-catalyzed testosterone hydroxylation (CYP3A4 [5]; 1-100 μM range): did not show relevant inhibition
- Inhibition of CYP3A4-catalyzed testosterone hydroxylation (CYP3A4 [5]): considerable inhibition only above 50 μM concentrations

Compound: Oc1cc(O)cc(O)c1 [PHLO, phloroglucinol]
- inhibition at 20 μM (CYP3A4 [8]): ~40%
- Peak plasma concentration ([4]; healthy human volunteers, oral 160 mg PHLO): approximately 5 μM

Compound: Oc1cccc(O)c1O [PYR, pyrogallol]
- Effect on HSA fluorescence signal at 340 nm [1]: significant decrease
- Kd ([1]; LogK (binding constant of albumin-ligand complex)): 20.9 µM
- LogKSV (Stern-Volmer quenching constant) [1]: 4.64 ± 0.03
- Concentration of warfarin in the filtrate (HSA Site I (warfarin)): significantly increased
- logK of PYR-HSA complex (HSA): 4.5
- Peak plasma concentration ([4]; healthy humans, black tea extract 2650 mg, plasma not treated with sulfatase): approximately 7 μM

Compound: Oc1cccc(O)c1 [RES, resorcinol]
- inhibition at 20 μM (CYP3A4 [8]): ~65%

Compound: O=c1c(-c2ccc(O)cc2)coc2cc(O)ccc12 [daidzein]
- Inhibition of CYP2C9-catalyzed hydroxylation of diclofenac (CYP2C9 [6]): inhibits
